Measured values as given in patent publication US10689367B2, “Triazole pyridyl compounds as agonists of the APJ receptor” (AMGEN INC., priority 2016, dated 2020).

Each molecule was assayed against human APJ receptor (Homo sapiens (Human), UniProt P35414) (assay: [35S]GTPγS binding assay on membranes from CHO cells stably expressing human APJ receptor). Settings: membranes of CHO cells stably expressing human APJ receptor, read-out: Activity hAPJ SPA EC50 IP.
Assay type: biochemical
Procedure, shortened: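 [35S]GTPγS binding measured on membranes from CHO cells stably expressing FLAG-tagged human APJ, with GDP, MgCl2 and NaCl levels optimized beforehand. Incubation 90 min at RT, imager read-out; EC50 from non-linear regression, averaged over several independent experiments.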

human APJ receptor, sequence (P35414 whole entry): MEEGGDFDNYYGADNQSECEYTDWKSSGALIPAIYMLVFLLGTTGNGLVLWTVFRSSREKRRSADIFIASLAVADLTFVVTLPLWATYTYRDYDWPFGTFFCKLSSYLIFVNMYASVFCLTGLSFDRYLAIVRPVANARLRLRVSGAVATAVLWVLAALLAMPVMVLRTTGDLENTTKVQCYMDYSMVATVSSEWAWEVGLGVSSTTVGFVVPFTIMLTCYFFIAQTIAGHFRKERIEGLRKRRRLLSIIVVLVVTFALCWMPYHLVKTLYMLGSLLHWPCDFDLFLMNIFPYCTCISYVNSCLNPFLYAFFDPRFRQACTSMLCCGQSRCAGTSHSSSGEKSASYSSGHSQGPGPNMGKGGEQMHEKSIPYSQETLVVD

SMILES | EC50 [nM]
COc1cccc(-c2nnc(NS(=O)(=O)[C@@H](C)[C@H](OC)c3ncc(Cl)cn3)n2CC2CCOC2)n1 (single isomer, unassigned) [Example 285.0, (1R,2S)-1-(5-chloropyrimidin-2-yl)-1-methoxy-N-(5-(6-methoxypyridin-2-yl)-4-(((R)-tetrahydrofuran-3-yl)methyl)-4H-1,2,4-triazol-3-yl)propane-2-sulfonamide or (1R,2S)-1-(5-chloropyrimidin-2-yl)-1-methoxy-N-(5-(6-methoxypyridin-2-yl)-4-(((S)-tetrahydrofuran-3-yl)methyl)-4H-1,2,4-triazol-3-yl)propane-2-sulfonamide] | 65
COc1cccc(-c2nnc(NS(=O)(=O)[C@@H](C)[C@H](OC)c3ncc(Cl)cn3)n2[C@@H]2C[C@@H]2F)n1 [Example 169.0, (1R,2S)-1-(5-Chloropyrimidin-2-yl)-N-(4-((1R,2S)-2-fluorocyclopropyl)-5-(6-methoxypyridin-2-yl)-4H-1,2,4-triazol-3-yl)-1-methoxypropane-2-sulfonamide] | 20
CC[C@H](c1cc(F)cc(F)c1)n1c(NS(=O)(=O)[C@@H](C)[C@H](OC)c2ncc(Cl)cn2)nnc1-c1cccc(OC)n1 (single isomer, unassigned) [Example 342.0, (1R,2S)-1-(5-chloropyrimidin-2-yl)-N-(4-((R)-1-(3,5-difluorophenyl)propyl)-5-(6-methoxypyridin-2-yl)-4H-1,2,4-triazol-3-yl)-1-methoxypropane-2-sulfonamide or (1R,2S)-1-(5-chloropyrimidin-2-yl)-N-(4-((S)-1-(3,5-difluorophenyl)propyl)-5-(6-methoxypyridin-2-yl)-4H-1,2,4-triazol-3-yl)-1-methoxypropane-2-sulfonamide] | 0.05
COCC1(n2c(NS(=O)(=O)[C@@H](C)[C@H](OC)c3ncc(C)cn3)nnc2-c2ccccn2)CC1 [Example 67.0] | 24
CC[C@@H](c1c(C)noc1C)n1c(NS(=O)(=O)[C@@H](C)[C@@H](OC(C)C)c2ncc(C)cn2)nnc1-c1cccc(OC)n1 (single isomer, unassigned) [Example 220.0, (1S,2S)-N-(4-((1S)-1-(3,5-dimethyl-1,2-oxazol-4-yl)propyl)-5-(6-methoxy-2-pyridinyl)-4H-1,2,4-triazol-3-yl)-1-(5-methyl-2-pyrimidinyl)-1-(2-propanyloxy)-2-propanesulfonamide or (1S,2S)-N-(4-((1R)-1-(3,5-dimethyl-1,2-oxazol-4-yl)propyl)-5-(6-methoxy-2-pyridinyl)-4H-1,2,4-triazol-3-yl)-1-(5-methyl-2-pyrimidinyl)-1-(2-propanyloxy)-2-propanesulfonamide] | 55
COCC1(n2c(NS(=O)(=O)[C@@H](C)[C@H](C)c3ncc(Cl)cn3)nnc2-c2cccnc2)CC1 [Example 68.0] | 2.8
COc1cccc(-c2nnc(NS(=O)(=O)[C@@H](C)[C@H](C)c3ncc(Cl)cn3)n2Cc2cc(C)on2)n1 [Example 272.0, (2S,3R)-3-(5-chloropyrimidin-2-yl)-N-(5-(6-methoxypyridin-2-yl)-4-((5-methylisoxazol-3-yl)methyl)-4H-1,2,4-triazol-3-yl)butane-2-sulfonamide] | 12
CC[C@H](c1c(C)noc1C)n1c(NS(=O)(=O)[C@@H](C)[C@H](OC)c2cnc(C)cn2)nnc1-c1cccc(OC)n1 (mixture of isomers) [Example 208.0, (1R,2S)-N-(4-((1R)-1-(3,5-dimethyl-1,2-oxazol-4-yl)propyl)-5-(6-methoxy-2-pyridinyl)-4H-1,2,4-triazol-3-yl)-1-methoxy-1-(5-methyl-2-pyrazinyl)-2-propanesulfonamide and (1R,2S)-N-(4-((1S)-1-(3,5-dimethyl-1,2-oxazol-4-yl)propyl)-5-(6-methoxy-2-pyridinyl)-4H-1,2,4-triazol-3-yl)-1-methoxy-1-(5-methyl-2-pyrazinyl)-2-propanesulfonamide] | 42
COCC(COC)n1c(NS(=O)(=O)[C@@H](C)[C@@H](OC(C)C)c2ncc(C)cn2)nnc1-c1cccc(OC)n1 [Example 104.0] | 0.39
COc1cccc(-c2nnc(NS(=O)(=O)[C@@H](C)[C@H](OC)c3ncc(Cl)cn3)n2C(C)C)n1 [Example 11.0, (1R,2S)-1-(5-chloro-2-pyrimidinyl)-1-methoxy-N-(5-(6-methoxy-2-pyridinyl)-4-(2-propanyl)-4H-1,2,4-triazol-3-yl)-2-propanesulfonamide] | 6.4
CC[C@@H](c1c(C)noc1C)n1c(NS(=O)(=O)[C@@H](C)[C@H](C)c2ncc(Cl)cn2)nnc1-c1cccc(OC)n1 (single isomer, unassigned) [Example 225.0, (2S,3R)-3-(5-chloro-2-pyrimidinyl)-N-(4-((1R)-1-(3,5-dimethyl-1,2-oxazol-4-yl)propyl)-5-(6-methoxy-2-pyridinyl)-4H-1,2,4-triazol-3-yl)-2-butanesulfonamide or (2S,3R)-3-(5-chloro-2-pyrimidinyl)-N-(4-((1S)-1-(3,5-dimethyl-1,2-oxazol-4-yl)propyl)-5-(6-methoxy-2-pyridinyl)-4H-1,2,4-triazol-3-yl)-2-butanesulfonamide] | 5.1
COc1cccc(-c2nnc(NS(=O)(=O)[C@@H](C)[C@@H](OC(C)C)c3ncc(C)cn3)n2[C@@H](C)c2ncn(C)n2)n1 (single isomer, unassigned) [Example 233.0, (1S,2S)-N-(5-(6-methoxy-2-pyridinyl)-4-((1S)-1-(1-methyl-1H-1,2,4-triazol-3-yl)ethyl)-4H-1,2,4-triazol-3-yl)-1-(5-methyl-2-pyrimidinyl)-1-(2-propanyloxy)-2-propanesulfonamide or (1S,2S)-N-(5-(6-methoxy-2-pyridinyl)-4-((1R)-1-(1-methyl-1H-1,2,4-triazol-3-yl)ethyl)-4H-1,2,4-triazol-3-yl)-1-(5-methyl-2-pyrimidinyl)-1-(2-propanyloxy)-2-propanesulfonamide] | 10
COc1cccc(-c2nnc(NS(=O)(=O)[C@@H](C)[C@H](C)c3ncc(Cl)cn3)n2[C@H](c2conc2C)C2CC2)n1 (mixture of isomers) [Example 228.0, (2S,3R)-3-(5-chloro-2-pyrimidinyl)-N-(4-((S)-cyclopropyl(3-methyl-1,2-oxazol-4-yl)methyl)-5-(6-methoxy-2-pyridinyl)-4H-1,2,4-triazol-3-yl)-2-butanesulfonamide and (2S,3R)-3-(5-chloro-2-pyrimidinyl)-N-(4-((R)-cyclopropyl(3-methyl-1,2-oxazol-4-yl)methyl)-5-(6-methoxy-2-pyridinyl)-4H-1,2,4-triazol-3-yl)-2-butanesulfonamide] | 0.88
COc1cccc(-c2nnc(NS(=O)(=O)[C@@H](C)[C@H](OC)c3ncc(Cl)cn3)n2[C@H](C)c2cnn(C)c2)n1 (single isomer, unassigned) [Example 339.0, (1R,2S)-1-(5-chloropyrimidin-2-yl)-1-methoxy-N-(5-(6-methoxypyridin-2-yl)-4-((R)-1-(1-methyl-1H-pyrazol-4-yl)ethyl)-4H-1,2,4-triazol-3-yl)propane-2-sulfonamide or (1R,2S)-1-(5-chloropyrimidin-2-yl)-1-methoxy-N-(5-(6-methoxypyridin-2-yl)-4-((S)-1-(1-methyl-1H-pyrazol-4-yl)ethyl)-4H-1,2,4-triazol-3-yl)propane-2-sulfonamide] | 3.1
COc1cccc(-c2nnc(NS(=O)(=O)[C@@H](C)[C@@H](OC(C)C)c3ncc(C)cn3)n2[C@@H](C)c2ccno2)n1 (single isomer, unassigned) [Example 217.0, (1S,2S)-N-(5-(6-methoxy-2-pyridinyl)-4-((1R)-1-(1,2-oxazol-5-yl)ethyl)-4H-1,2,4-triazol-3-yl)-1-(5-methyl-2-pyrimidinyl)-1-(2-propanyloxy)-2-propanesulfonamide or (1S,2S)-N-(5-(6-methoxy-2-pyridinyl)-4-((1S)-1-(1,2-oxazol-5-yl)ethyl)-4H-1,2,4-triazol-3-yl)-1-(5-methyl-2-pyrimidinyl)-1-(2-propanyloxy)-2-propanesulfonamide] | 5.3
COc1cccc(-c2nnc(NS(=O)(=O)[C@@H](C)[C@H](OC)c3ncc(Cl)cn3)n2[C@H](C)c2cncs2)n1 (single isomer, unassigned) [Example 346.0, (1R,2S)-1-(5-chloropyrimidin-2-yl)-1-methoxy-N-(5-(6-methoxypyridin-2-yl)-4-((R)-1-(thiazol-5-yl)ethyl)-4H-1,2,4-triazol-3-yl)propane-2-sulfonamide or (1R,2S)-1-(5-chloropyrimidin-2-yl)-1-methoxy-N-(5-(6-methoxypyridin-2-yl)-4-((S)-1-(thiazol-5-yl)ethyl)-4H-1,2,4-triazol-3-yl)propane-2-sulfonamide] | 4.4
COc1cccc(-c2nnc(NS(=O)(=O)[C@@H](C)[C@H](OC)c3ncc(Cl)cn3)n2[C@H](C)c2cccnc2)n1 (single isomer, unassigned) [Example 350.0, (1R,2S)-1-(5-chloropyrimidin-2-yl)-1-methoxy-N-(5-(6-methoxypyridin-2-yl)-4-((R)-1-(pyridin-3-yl)ethyl)-4H-1,2,4-triazol-3-yl)propane-2-sulfonamide or (1R,2S)-1-(5-chloropyrimidin-2-yl)-1-methoxy-N-(5-(6-methoxypyridin-2-yl)-4-((S)-1-(pyridin-3-yl)ethyl)-4H-1,2,4-triazol-3-yl)propane-2-sulfonamide] | 7.84
COc1cccc(-c2nnc(NS(=O)(=O)[C@@H](C)[C@H](C)c3ncc(Cl)cn3)n2[C@@H](C)c2ccno2)n1 (mixture of isomers) [Example 201.0, (2S,3R)-3-(5-chloro-2-pyrimidinyl)-N-(5-(6-methoxy-2-pyridinyl)-4-((1R)-1-(1,2-oxazol-5-yl)ethyl)-4H-1,2,4-triazol-3-yl)-2-butanesulfonamide and (2S,3R)-3-(5-chloro-2-pyrimidinyl)-N-(5-(6-methoxy-2-pyridinyl)-4-((1S)-1-(1,2-oxazol-5-yl)ethyl)-4H-1,2,4-triazol-3-yl)-2-butanesulfonamide] | 3.5
